Assay results taken from patent US5428168A, “Lactol PAF antagonists” (British Biotech Pharmaceuticals Limited, priority 1990, dated 1995).

Legend:
[1] = test system: PAF-induced hypotension in the rat; test: Reversal of PAF-induced hypotension in anaesthetised rats; type: in vivo, rat (male Sprague-Dawley); conditions: iv, i.v. bolus, PAF 100 ng/kg/min i.v., straight line interpolation, read-out: ED50 (dose to cause 50% reversal of the hypotensive PAF response)
Description: Male Sprague-Dawley rats (300-400 g) were anaesthetised with a mixture of sodium pentobarbitone, 22.5 mg·kg^-1 and thiopental 62.5 mg·kg^-1. Through a midline incision in the neck, the trachea was cannulated and the animals breathed spontaneously. A carotid artery was cannulated for the measurement of blood pressure and this signal was used to trigger a rate meter to measure heart rate. Both jugular veins were cannulated: one for the infusion of PAF and the other for the bolus administration of test compounds.
PAF, 100 ng·kg^-1 .min^-1 was infused i.v. until a sustained fall in mean blood pressure of 50 mmHg was achieved. […] The peak of this reversal was measured and the dose to cause a 50% reversal of the hypotensive PAF response (ED50) calculated by straight line interpolation and the results are presented in Table 2.

[2] = test system: PAF-induced bronchoconstriction in the guinea pig; test: Reversal of PAF-induced bronchoconstriction in anaesthetised guinea-pigs (modified Konzett-Rossler); type: in vivo, guinea-pig (male Dunkin-Hartley); conditions: Cavia porcellus, iv, PAF 40 ng/kg/min i.v., read-out: ED50 (dose resulting in 50% reversal of PAF-induced bronchoconstriction)
Description: The inhibition of PAF induced bronchoconstriction was measured in anaesthetised artificially ventilated guinea-pigs (450-500 g) using a modified version of the Konzett-Rossler technique (Konzett M and Rossler R, Naunym-Schmiedeb. Arch. Exp. Pathol. Pharmakol., 1940, 197, 71). Male Dunkin-Hartley guinea-pigs were anaesthetised with urethane, 1.6 g·kg^-1. Through a midline neck incision, the trachea was cannulated and the animal ventilated with a constant tidal volume set between 5 and 15 ml, to give a tracheal inflation pressure of 15 mmHg at a rate of 40 per minute. A carotid artery was cannulated for the measurement of blood pressure and heart rate and both jugular veins were cannulated, one for the infusion of PAF and the other for the administration of test compounds. PAF, 40 ng·kg^-1 ·min^-1, was infused i.v. to produced a 100% increase in tracheal inflation pressure, and bronchoconstrictor effects were determined.

[3] = test system: endotoxin induced hypotension in the rat; test: Reversal of endotoxin induced hypotension in anaesthetised rats; type: in vivo; conditions: iv, i.v. bolus, E. coli endotoxin 0111:B4, straight line interpolation, read-out: ED50 (dose resulting in 50% reversal of endotoxin induced hypotension)
Description: Rats were anaesthetised with a mixture of sodium pentobarbitone, 22.5 mg·kg^-1, and thiopental, 62.5 mg·kg^-1. The animals breathed spontaneously, air enriched with oxygen, and a carotid artery was cannulated for the measurement of blood pressure and heart rate. […] Test compounds were administered i.v. via the other jugular vein as a bolus.

PAF receptor = biological target: T1, PAF receptor (Homo sapiens, UniProt P25105); test: Inhibition of [3H]-PAF receptor binding to human platelet plasma membrane (isotopic labelling and filtration); conditions: human platelet membranes, 0.5 nM [3H]-PAF, 0° C., 1 hour
T1 construct: Platelet concentrates were obtained from a hospital blood bank; from tissue; host or cells: human platelets (plasma membrane fraction of lysed platelets from hospital blood bank concentrates)
Description: Compounds of general formula I inhibit PAF-induced functions in both the cellular and tissue levels by changing the PAF binding to its specific receptor site. The ability of compounds of general formula I to inhibit the binding of PAF to its specific receptor binding site on human platelet plasma membranes was measured according to the pharmacological example. […] Platelet concentrates were obtained from a hospital blood bank. These platelet concentrates (500-2500 ml.) were centrifuged at 800 rpm for 10 minutes in a SORVALL RC3B centrifuge to remove the red blood cells present. (The word SORVALL is a trade mark.) The supernatant was subsequently centrifuged at 3,000 rpm in a SORVALL RC3B centrifuge to pellet the platelets present. The platelet rich pellets were resuspended in a minimum volume of buffer (150 mM NaCl, 10 mM Tris, 2 mM EDTA, pH 7.5) and layered onto Ficoll-Paque gradients, 9 ml platelet concentrate to 2 ml Ficoll, and centrifuged at 1,900 rpm for 15 minutes in a SORVALL RT6000 centrifuge. This step removes the residual red blood cells and other nonspecific material such as lymphocytes from the preparation. The platelets which form a band between the plasma and the Ficoll were removed, resuspended in the above buffer and centrifuged at 3,000 rpm for 10 minutes in a SORVALL RT6000 centrifuge. The pelleted platelets were resuspended in buffer (10 mM Tris, 5mM MgCl2, 2 mM EDTA, pH 7.0), snap freezed in liquid N2 and allowed to thaw slowly at room temperature in order to lyse the platelets. The latter step was repeated at least 3 times to ensure proper lysis. The lysed platelets were centrifuged at 3,000 rpm for 10 minutes in a SORVALL RT6000 centrifuge and resuspended in buffer. The latter step was repeated twice in order to remove any cytoplasmic proteins which may hydrolyse the […]. The prepared platelet membranes may be stored at -70° C. After thawing the prepared membranes were centrifuged in a SORVALL RT6000 at 3,000 rpm for 10 minutes and resuspended in assay buffer. The assay was conducted by preparing a series of Tris-buffered solutions of the selected antagonist of predetermined concentrations. […] Incubation was initiated by the addition of 100 μg of the isolated membrane fraction to each of the above solutions at 0° C. […] (The word WHATMAN is a trade mark.) The residue in each case was rapidly washed 4 times with 5 ml cold (4° C.) Tris-buffer solution. […] % Inhibition=[(TB-TBA)/SB]x100 where the specific binding SB=TB-NSB […]

T1 sequence (P25105 whole entry): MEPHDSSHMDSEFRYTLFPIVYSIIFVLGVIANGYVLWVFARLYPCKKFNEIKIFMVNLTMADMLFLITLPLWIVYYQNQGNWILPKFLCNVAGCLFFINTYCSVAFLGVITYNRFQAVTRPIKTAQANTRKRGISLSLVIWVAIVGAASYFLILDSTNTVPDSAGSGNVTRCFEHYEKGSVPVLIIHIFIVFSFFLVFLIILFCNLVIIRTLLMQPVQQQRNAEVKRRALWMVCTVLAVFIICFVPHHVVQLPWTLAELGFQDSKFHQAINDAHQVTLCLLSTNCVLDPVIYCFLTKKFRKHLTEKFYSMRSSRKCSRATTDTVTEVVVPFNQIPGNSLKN

## COc1ccc([C@H]2CC[C@@H](OCCCc3cccnc3)O2)cc1OC (relative stereo) [Example 1B, cis-O-(3-(3-pyridyl)propyl)-5-(3,4-dimethoxyphenyl)-gamma-butyrolactol ether]
[1]
  ED50: 9 µg/kg
[2]
  ED50: 2.1 µg/kg
[3]
  ED50: 18 µg/kg

## COc1ccc([C@H]2CC[C@H](OCCCn3c(C)nc4cnccc43)O2)cc1OC (relative stereo) [Example 30B, O-(3-(1H-2-Methylimidazo[4,5-c]pyridyl)propyl)-5-(3,4-dimethoxyphenyl)-gamma-butyrolactol ether]
PAF receptor
  IC50: 7 nM
[3]
  ED50: 7 µg/kg
